In ChEMBL document CHEMBL1136483, “Synthesis and antiviral evaluation of 3-hydroxy-2-methylpyridin-4-one dideoxynucleoside derivatives” (Bioorg Med Chem Lett, 2003):

Legend:
[1] = system: HEL; assay: Compound was tested for anti-viral activity against HSV-1TK neg in HEL cells; type: functional, cell-based; settings: Homo sapiens
[2] = system: CCRF-CEM; assay: Compound concentration required to reduce viability of CEM cells; type: functional; settings: Homo sapiens
[3] = system: CCRF-CEM; assay: Compound was tested for anti-viral activity against HIV-2 in CEM cells; type: functional, cell-based; settings: Homo sapiens
[4] = system: HEL; assay: Compound concentration required to reduce viability of HEL cells; type: functional; settings: Homo sapiens
[5] = system: CCRF-CEM; assay: Compound was tested for anti-viral activity against HIV-1 in CEM cells; type: functional, cell-based; settings: Homo sapiens
[6] = system: Human herpesvirus 2 (Herpes simplex virus type 2); assay: Compound was tested for anti-viral activity against HSV-2(G) in HEL cells
[7] = system: HEL; assay: Compound was tested for anti-viral activity against HSV-1(KOS) in HEL cells; type: functional, cell-based; settings: Homo sapiens

Row | Structure (SMILES) | EC50 [1] [µM] | CC50 [2] [µM] | EC50 [3] [µM] | CC50 [4] [µM] | EC50 [5] [µM] | EC50 [6] [µM] | EC50 [7] [µM]
1 | Cc1c(O)c(=O)ccn1[C@@H]1CC[C@@H](CO)O1 | 500 | > 50 | > 50 | > 900 | > 50 | 500 | 177
2 | Cc1c(O)c(=O)ccn1[C@H]1CC[C@@H](CO)O1 | 500 | 101 | > 50 | > 900 | > 50 | > 900 | 40
3 | Cc1c(O)c(=O)ccn1[C@H]1CS[C@@H](CO)O1 (racemic) | 80 | 203 | > 80 | > 100 | > 80 | 81 | 32
4 | Nc1ccn(C[C@@H](CO)OCP(=O)(O)O)c(=O)n1 [CIDOFOVIR] |  | > 200 | > 200 | > 350 | > 200 |  | 0.57
5 | Nc1nc2c(ncn2COC(CO)CO)c(=O)[nH]1 [GANCICLOVIR] |  | > 200 | > 200 | > 400 | > 200 | 0.06 | 
6 | Nc1nc2c(ncn2COCCO)c(=O)[nH]1 [ACYCLOVIR] | 88 | > 200 | > 200 | > 1700 | > 200 |  | 0.32
7 | Cc1c(O)c(=O)ccn1[C@@H]1CS[C@@H](CO)O1 (racemic) | 95 | 203 | > 80 | > 400 | > 80 | 90 | 40
